Entries after “also recorded” stand apart in the source; their conditions may differ.
Assays:
[1] = target: T1, GCase in fibroblasts bearing the L444P/L444P mutations (Homo sapiens, UniProt P04062, L483P); assay: Pharmacological chaperoning activity in L444P/L444P Gaucher fibroblasts; format: cell-based; conditions: for cell viability: 50 µM, 4 days; for GCase enzymatic activity rescue: 4 days incubation, 5 nM to 10 μM
T1 construct: fibroblasts derived from Gaucher patients bearing the N370S/RecNcil and L444P/L444P mutations; host or cells: fibroblasts from Gaucher disease patients, L444P/L444P
T1 sequence (P04062 40-536 L483P): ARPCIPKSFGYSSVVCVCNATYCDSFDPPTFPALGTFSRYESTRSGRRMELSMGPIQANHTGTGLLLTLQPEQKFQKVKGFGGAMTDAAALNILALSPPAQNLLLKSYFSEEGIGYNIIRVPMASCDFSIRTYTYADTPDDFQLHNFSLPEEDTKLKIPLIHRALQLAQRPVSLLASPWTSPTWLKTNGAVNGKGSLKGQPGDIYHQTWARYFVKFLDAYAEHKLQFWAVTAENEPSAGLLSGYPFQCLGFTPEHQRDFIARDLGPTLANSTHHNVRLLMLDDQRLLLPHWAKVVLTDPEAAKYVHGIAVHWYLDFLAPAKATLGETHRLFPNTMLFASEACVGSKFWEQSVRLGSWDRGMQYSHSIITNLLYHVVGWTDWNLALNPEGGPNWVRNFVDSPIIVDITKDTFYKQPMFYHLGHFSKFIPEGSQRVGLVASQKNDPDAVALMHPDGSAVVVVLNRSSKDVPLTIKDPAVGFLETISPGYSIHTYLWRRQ
Protocol: The ability of compounds 14 and 15 to enhance the activity of GCase after incubation (4 days) with fibroblasts bearing the selected mutations was evaluated. The experiments were performed using fibroblasts derived from Gaucher patients bearing the N370S/RecNcil and L444P/L444P mutations (see the Supporting Information section).
Fibroblasts with the N370S/RecNcil (or L444P/L444P) mutation from Gaucher disease patients were obtained from the “Cell line and DNA Biobank from patients affected by Genetic Diseases” (Gaslini Hospital, Genova, Italy). Fibroblast cells (15.0 × 10^4) were seeded in T25 flasks with DMEM supplemented with fetal bovine serum (10%), penicillin/streptomycin (1%), and glutamine (1%) and incubated at 37 °C with 5% CO2 for 24 h. The medium was removed, and fresh medium containing the compounds (14, 15 and 33·HCl) was added to the cells and incubated for 4 days. The medium was removed, and the cells were washed with PBS and detached with trypsin to obtain cell pellets, which were washed four times with PBS, frozen, and lysed by sonication in water. Enzyme activity was measured as reported above. Reported data are mean S.D. (n = 2).
Figure S52. Fibroblasts derived from GD patients bearing L444P/L444P mutations were incubated without (control, ctrl) or with 7 different concentrations (5 nM, 10 nM, 50 nM, 100 nM, 1 µM, 10 µM, 50 µM) of compounds 14 or 15. After 4 days, the flasks containing cells incubated with 50 µM […]
other concentrations, the GCase activity was determined in lysates from treated fibroblasts. Reported data are mean S.D. (n=2).
(also on this page, place not known: beta glucosidase activity (nmol/mg/h) beta glucosidase activity (nmol/mg/h))

[2] = target: T2, α-mannosidase (Homo sapiens, UniProt O00754); assay: Human lysosomal glycosidase selectivity screening (leukocyte homogenate); format: biochemical; conditions: 1 mM, read-out: percentage of inhibition, α-Man
T2 construct: from leukocytes isolated from healthy donors (controls); from tissue; host or cells: leukocytes from healthy donors, sonicated homogenate
T2 sequence (O00754 50-1011): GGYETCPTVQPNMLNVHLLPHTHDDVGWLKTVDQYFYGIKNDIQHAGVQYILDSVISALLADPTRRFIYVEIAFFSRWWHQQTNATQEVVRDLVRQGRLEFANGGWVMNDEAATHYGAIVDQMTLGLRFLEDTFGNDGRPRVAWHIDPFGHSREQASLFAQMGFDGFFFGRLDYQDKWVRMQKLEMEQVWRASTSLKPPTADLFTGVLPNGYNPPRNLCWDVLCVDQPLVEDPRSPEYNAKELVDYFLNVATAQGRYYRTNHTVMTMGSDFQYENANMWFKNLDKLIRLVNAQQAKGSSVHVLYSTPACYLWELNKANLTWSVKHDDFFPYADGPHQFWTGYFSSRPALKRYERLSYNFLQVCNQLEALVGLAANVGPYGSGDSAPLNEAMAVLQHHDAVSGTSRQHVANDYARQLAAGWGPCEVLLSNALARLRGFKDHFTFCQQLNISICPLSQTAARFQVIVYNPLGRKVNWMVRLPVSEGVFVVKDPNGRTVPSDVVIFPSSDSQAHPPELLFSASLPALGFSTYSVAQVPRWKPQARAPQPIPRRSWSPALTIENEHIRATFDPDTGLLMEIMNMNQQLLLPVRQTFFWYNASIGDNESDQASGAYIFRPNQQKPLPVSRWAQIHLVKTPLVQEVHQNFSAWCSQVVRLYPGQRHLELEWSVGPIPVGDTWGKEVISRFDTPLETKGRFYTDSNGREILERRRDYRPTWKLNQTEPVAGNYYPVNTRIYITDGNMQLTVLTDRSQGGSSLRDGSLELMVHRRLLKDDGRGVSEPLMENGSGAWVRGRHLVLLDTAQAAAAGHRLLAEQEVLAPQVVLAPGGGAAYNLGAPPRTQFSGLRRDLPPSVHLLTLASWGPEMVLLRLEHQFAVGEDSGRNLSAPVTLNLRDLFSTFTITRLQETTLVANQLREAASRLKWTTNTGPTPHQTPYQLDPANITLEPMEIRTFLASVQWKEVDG
Protocol: In order to avoid undesired inhibitory side effects of a potential new drug, it has to be selective for a given target. The selectivity of the newly synthesized compounds 14, 15, and 33·HCl toward GCase was then investigated, evaluating their inhibition at 1 mM concentration toward six other lysosomal glycosidases (namely, α-and β-mannosidases, α- and β-galactosidases, α-fucosidase, and α-glucosidase) in cell homogenates (leucocytes or lymphocytes) isolated from healthy donors. […] Indeed, only moderate inhibitory activity (ca. 50%) was found toward human β-galactosidase for both piperidines 14 and 15, while negligible inhibitory activity was detected in all other cases.
(§1) The effect of 1 mM concentration of 14, 15, and 33·HCl was assayed toward six lysosomal glycosidases other than GCase, namely, α-mannosidase, β-mannosidase, α-galactosidase, β-galactosidase, α-fucosidase from leukocytes isolated from healthy donors (controls) and α-glucosidase from lymphocytes isolated from healthy donors’ flesh blood (controls). Isolated leukocytes or lymphocytes were disrupted by sonication, and a micro BCA protein assay kit (Sigma-Aldrich) was used to determine the total protein amount for the enzymatic assay, according to the manufacturer’s instructions (for more details, see the Supporting Information section).
Selectivity of compounds 14, 15 and 33.HCl towards lysosomal enzymes.
as §1, with “15” for “15,”, “33.HCl” for “33·HCl”, “towards” for “toward”, “namely:” for “namely,”, “(Sigma–Aldrich)” for “(Sigma-Aldrich)”, “manufacturer instructions. […]” for “manufacturer’s instructions (for more details, see the Supporting Information section).”
Molecular Devices). Inhibition is given with respect to the control (without azasugar). Data are mean SD (n=3). […]
Inhibition is given with respect to the control (without azasugar). Data are mean SD (n=3). […]
(1 picture or pasted object on this page, not shown here) […]
α-Fucosidase activity was measured in a flat -bottomed 96 -well plate. Azasugar solution (3 μL), 4.29 μg/μL leukocytes homogenate 1:3 (7 μL), and substrate 4 -methylumbe lliferyl α-L-fucopyranoside (1.51 mM, 20 μL, Sigma –Aldrich) in Na phosphate/citrate buffer (0.2:0.1, M/M, pH 5.5) were incubated at 37 °C for 1 h. […]
Data are mean SD (n=3). S74 […]
α-Glucosidase activity was measured in a flat –bottomed 96 well plate. Azasugar solution (3 µL), 4.29 µg/µL lymphocytes homogenate (7µL) and 20 µL of substrate solution of 4 -methylumbelliferyl -α-D-glucopyranoside (Sigma -Aldrich) in Na a cetate buffer (0.2 M, pH 4.0) were incubated for 1 h at 37 °C. The reaction was stopped by the addition of a solution of sodium carbonate (200 µL; 0.5M, pH 10.7) containing Triton X -100 (0.0025 %), and the fluorescence of 4 -methylumbelliferone released by α-glucosidase activity was measured in […]
respect to the control (without azasugar). Data are means of 3 values. […]
Figure S 48. Activity of a panel of 6 hu man lysosomal glycosidases in the presence of compounds 14, 15 and 33.HCl (1 mM ). The corresponding calculated percentage of inhibition is indicated above each bar.

SMILES | cell viability [1] | GCase enzymatic activity rescue [1] | inhibition at 1000 µM [2]
CCCCCCCC[C@@H]1[C@@H](O)[C@H](O)[C@H](O)CN1CCCCCCCC [compound 15, (2R,3R,4R,5R)-1,2-Dioctylpiperidine-3,4,5-triol] | low cell viability | no enzymatic activity rescue; also recorded: no GCase activity enhancements | 7%
CCCCCCCC[C@H]1[C@@H](O)[C@H](O)[C@H](O)CN1CCCCCCCC [compound 14, (2S,3R,4R,5R)-1,2-Dioctylpiperidine-3,4,5-triol] | low cell viability | no enzymatic activity rescue; also recorded: no GCase activity enhancements | 4%

From paper PMC8453635, “Piperidine Azasugars Bearing Lipophilic Chains: Stereoselective Synthesis and Biological Activity as Inhibitors of Glucocerebrosidase (GCase)” (The Journal of Organic Chemistry, 2021)
